The text below walks through data of publication PMC12610713, “Inhibition Profiling of Rhodiola crenulata on Lactate Dehydrogenase Isoenzymes” (Molecules, 2025).

Like-named read-outs stand apart in the source and are kept apart here.

The target in data set [1] is T1, recombinant LDHA (Homo sapiens, UniProt P00338). The experiment in a line: LDHA enzyme activity inhibition assay (NADH oxidation, 340 nm). Format: biochemical. Also noted: His-tag; made in house; host or cells: E. coli BL21(DE3). The settings on record: for inhibition rate against LDHA (selection for dose-response) / LDH inhibitory activity, LDHA compared with LDHB (inhibition rates): components assayed at 10 µM and 40 µM; for LDH inhibitory activity, LDHA compared with LDHB (inhibition rates): Figure 5.

The test system of another data set is MDA-MB-231 cells. The experiment in a line: Cell viability assay (CCK-8) MDA-MB-231. In kind it is cell-based. The settings on record: Homo sapiens, 72 h incubation, read-out: IC50 against MDA-MB-231. How it is done: (§1) The MDA-MB-231 and HepG2 cell lines, representing triple-negative breast cancer and hepatocellular carcinoma, were selected to evaluate the inhibitory effects of LDHA and LDHB inhibitors. […] Following 72 h of incubation, 10 µL of CCK-8 reagent was added to each well, and cells were further incubated for 1–4 h. Absorbance was measured at 450 nm with a reference wavelength of 600 nm for background correction. Data from three independent experiments (each with three technical replicates) were normalized to the vehicle control (100% viability) and medium-only wells (0% viability).

The test system of a further data set is HepG2 cells. The experiment in a line: Cell viability assay (CCK-8) HepG2. Format: cell-based. The settings on record: Homo sapiens, 72 h incubation, read-out: IC50 against HepG2. On the procedure: as §1
Data set [2] has as its target T2, recombinant LDHB (Homo sapiens, UniProt P07195).
T2 construct: His-tag; made in house; host or cells: E. coli BL21(DE3)
The experiment in a line: LDHB enzyme activity inhibition assay (NADH oxidation, 340 nm). Format: biochemical. The note with it: for IC50: 0.08 mM sodium pyruvate, 0.04 mM NADH, 10 min pre-incubation, 30 °C, read-out: IC50 against LDHB; for inhibition rate against LDHB (selection for dose-response): components assayed at 10 µM and 40 µM. On the procedure: The Z’ factor (Z’ = 1 − [3 × (σₚ + σₙ)]/|μₚ − μₙ|) was used to evaluate the robustness of the screening platform, where σ represents the standard deviation, μ represents the mean value, p denotes enzyme activity, and n denotes the background signal. […] (2) The enzyme-inhibitor mixture was pre-incubated for 10 min at room temperature. […] (4) At 30 °C, the enzymatic reaction was monitored at 340 nm for 20 min.
For the enzyme activity assay, the concentrations of the R. crenulata extract were 20 µg/mL, while the 19 isolated components was assayed at 10 µM and 40 µM.

In data set [3] the test system is CC(=O)C(=O)O. The experiment in a line: purified protein, by the assay type. The note with it: other: pyruvate varied with NADH 0.6 mM; NADH varied with sodium pyruvate 1 mM; pH 7.4; 30.0 °C.
Description: (§3) Based on comprehensive literature evidence [41, 61, 62, 63, 64] and systematic experimental validation, we established optimized enzymatic assay platforms for LDHA and LDHB inhibitor screening. […] Reactions were conducted in 0.1 M Tris-HCl buffer (with 10% glycerol, pH 7.4) at 30 °C, and NADH oxidation was kinetically monitored at 340 nm for 20 min. […] Kinetic parameters (Km and Vmax) were derived by nonlinear regression analysis of the Michaelis-Menten equation using GraphPad Prism 8.0 (GraphPad Software, San Diego, CA, USA).
In data set [4] the test system is T3, CC(=O)C(=O)O.
T3 construct: His-tag; made in house; host or cells: E. coli BL21(DE3)
Description: Michaelis-Menten kinetics of recombinant LDHB. Format: biochemical, homo sapiens. The settings on record: other: pyruvate varied with NADH 0.6 mM; NADH varied with sodium pyruvate 1 mM; pH 7.4; 30.0 °C. On the procedure: (§2) Based on comprehensive literature evidence and systematic experimental validation, we established optimized enzymatic assay platforms for LDHA and LDHB inhibitor screening. In the platforms, 60 µL of purified enzyme solution (1.95 nM final concentration) was loaded into 96-well plates, followed by 140 µL of a 1:1 (v/v) pyruvate/NADH substrate mixture. Reactions were conducted in 0.1 M Tris-HCl buffer (with 10% glycerol, pH 7.4) at 30 °C, and NADH oxidation was kinetically monitored at 340 nm for 20 min. To determine the kinetic parameters, the optimization protocol for LDHA was performed as follows: with NADH fixed at 0.6 mM while varying sodium pyruvate (0.02–2.5 mM) to determine the optimal concentration; and with sodium pyruvate fixed at 1 mM while varying NADH (0.01–0.7 mM) to determine the optimal concentration. Similarly, the optimization protocol for LDHB was performed as follows: with NADH fixed at 0.6 mM while varying sodium pyruvate (0.01–1.05 mM) to determine the optimal concentration; and with sodium pyruvate fixed at 1 mM while varying NADH (0.01–0.7 mM) to determine the optimal concentration. The initial reaction rates were derived by analyzing the progress curves with OriginPro 2023 (OriginLab Co., Northampton, MA, USA). Kinetic parameters (Km and Vmax) were derived by nonlinear regression analysis of the Michaelis-Menten equation using GraphPad Prism 8.0 (GraphPad Software, San Diego, CA, USA).

The target of data set [5] is T2, recombinant LDHB. Description: Michaelis-Menten kinetics of recombinant LDHB. In kind it is biochemical. The settings on record: pyruvate varied with NADH 0.6 mM; NADH varied with sodium pyruvate 1 mM. How it is done:
as §2

The target in data set [6] is T1, recombinant LDHA. The experiment in a line: Michaelis-Menten kinetics of recombinant LDHA. The settings on record: pyruvate varied with NADH 0.6 mM, NADH varied with sodium pyruvate 1 mM.
Description: as §3
Where [7] appears, read: 0.16 mM sodium pyruvate, 0.04 mM NADH, 10 min pre-incubation, 30 °C, read-out: IC50 against LDHA.

T2 sequence (P07195 whole entry): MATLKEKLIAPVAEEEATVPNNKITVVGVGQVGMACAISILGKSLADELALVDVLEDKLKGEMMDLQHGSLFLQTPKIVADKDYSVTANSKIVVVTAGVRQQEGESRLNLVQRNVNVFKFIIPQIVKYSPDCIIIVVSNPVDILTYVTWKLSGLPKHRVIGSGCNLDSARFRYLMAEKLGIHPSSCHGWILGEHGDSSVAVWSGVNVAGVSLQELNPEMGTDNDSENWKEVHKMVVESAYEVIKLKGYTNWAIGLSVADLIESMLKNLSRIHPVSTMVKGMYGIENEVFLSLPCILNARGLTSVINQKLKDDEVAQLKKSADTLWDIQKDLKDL

Broadly, the IC50 is the concentration at which inhibition is half-maximal. Take `O=c1c(O)c(-c2ccc(O)cc2)oc2cc(O)cc(O)c12` [Kaempferol, kaempferol]: the IC50 on recombinant LDHA [1] (setting [7]) was found to be 0.7 ± 0.13 µM; with MDA-MB-231 cells, 37.5 ± 2 µM; with HepG2 cells, 50 ± 2.5 µM; at recombinant LDHB [2], 8.69 ± 0.85 µM. Also, on recombinant LDHA [1] (LDHA vs LDHB), the “potency in inhibiting LDHA relative to LDHB (IC50 comparison)” value is listed as “more than 10 fold”. The “inhibition rate against LDHA (selection for dose-response)” value on recombinant LDHA [1] is “exceeding 80%”. For the same compound, the “LDH inhibitory activity, LDHA compared with LDHB (inhibition rates)” value at recombinant LDHA [1] is listed as “stronger inhibition against LDHA than LDHB”. Further, the “inhibition rate against LDHB (selection for dose-response)” value at recombinant LDHB [2] is on record as “exceeding 80%”.
For the compound `O=c1cc(-c2ccc(O)c(O)c2)oc2cc(O)cc(O)c12` [Luteolin, luteolin], at recombinant LDHA [1], the “inhibition rate against LDHA (selection for dose-response)” value was “exceeding 80%” and the “LDH inhibitory activity, LDHA compared with LDHB (inhibition rates)” value is given as “stronger inhibition against LDHA than LDHB”. Besides, the half-inhibitory concentration (IC50) with MDA-MB-231 cells was 25.1 ± 1 µM. Besides, the IC50 with HepG2 cells amounted to 74 ± 3.5 µM. Besides, on recombinant LDHB [2], the IC50 turned out to be 2.71 ± 0.39 µM and the “inhibition rate against LDHB (selection for dose-response)” value was “exceeding 80%”.
As a reminder, the Km is the substrate concentration at which the rate is half of its maximum. With recombinant LDHA (Homo sapiens), in the data set on CC(=O)C(=O)O [3], the Km came out at 160 ± 27 µM.
Regarding recombinant LDHB (Homo sapiens), the Km in the data set on CC(=O)C(=O)O [4] was 74 ± 19 µM.
As to `O=c1oc2c(O)c(O)cc3c(=O)oc4c(O)c(O)cc1c4c23` [Ellagic acid], at recombinant LDHA [1], the “LDH inhibitory activity, LDHA compared with LDHB (inhibition rates)” value was “stronger inhibition against LDHA than LDHB”. In addition, the figures for the IC50 with MDA-MB-231 cells and with HepG2 cells were 54.3 ± 2.5 µM and 59 ± 3 µM, respectively.
For the compound `O=C(O[C@@H]1Cc2c(O)cc(O)cc2O[C@@H]1c1ccc(O)c(O)c1)c1cc(O)c(O)c(O)c1` [Epicatechin gallate, epicatechin gallate], the IC50 is 2.27 ± 0.23 µM at recombinant LDHA [1] (setting [7]), 23.5 ± 1 µM with MDA-MB-231 cells and 33.8 ± 1 µM in the data set on HepG2 cells. The “inhibition rate against LDHA (selection for dose-response)” value on recombinant LDHA [1] is “exceeding 80%”. Also, the “LDH inhibitory activity, LDHA compared with LDHB (inhibition rates)” value at recombinant LDHA [1] was “stronger inhibition against LDHA than LDHB”.
Consider `NC(=O)C1=CN([C@@H]2O[C@H](COP(=O)([O-])OP(=O)([O-])OC[C@H]3O[C@@H](n4cnc5c(N)ncnc54)[C@H](O)[C@@H]3O)[C@@H](O)[C@H]2O)C=CC1.[Na+].[Na+]` [NADH, β-Nicotinamide adenine dinucleotide disodium salt], for which, at recombinant LDHB [5], the Km is 40 ± 5 µM and the “Vmax of LDHB” value was found to be 10.05 ± 0.33 µM/min. Also, the “Vmax of LDHA” value at recombinant LDHA [6] is 15.37 ± 0.57 µM/min. Further, the Km on recombinant LDHA [6] (read-out: Km of LDHA) was 39 ± 6 µM.
For `Cc1cc2c(C(C)C)c(O)c(O)c(C=O)c2c(O)c1-c1c(C)cc2c(C(C)C)c(O)c(O)c(C=O)c2c1O` [gossypol, reference compound], the concentration for half-maximal inhibition (IC50) at recombinant LDHA [1] was 0.19 ± 0.05 µM.
In the case of `O=c1c(O)c(-c2ccc(O)c(O)c2)oc2cc(O)cc(O)c12` [Quercetin], the IC50 at recombinant LDHA [1] (setting [7]) turned out to be 0.27 ± 0.02 µM; with MDA-MB-231 cells, 27.3 ± 1.5 µM; in the data set on HepG2 cells, 54.8 ± 3 µM; on recombinant LDHB [2] it was 0.87 ± 0.07 µM. For the same compound, the “inhibition rate against LDHA (selection for dose-response)” value at recombinant LDHA [1] is “exceeding 80%”. Also, the “LDH inhibitory activity, LDHA compared with LDHB (inhibition rates)” value at recombinant LDHA [1] is reported as “stronger inhibition against LDHA than LDHB”. The “inhibition rate against LDHB (selection for dose-response)” value at recombinant LDHB [2] is recorded as “exceeding 80%”.
